In brackets after ≈: the same amount, converted by molar mass.
Target: T1, rat intestinal alpha glucosidase
T1 construct: gene Si; rat intestinal alpha-glucosidase preparation
Assay: alpha-glucosidase inhibition assay
Assay type: biochemical
Conditions: standard; rat intestinal enzyme

C[C@H]1O[C@H](O[C@H]2[C@H](O)[C@@H](O)[C@@H](O[C@H]3[C@H](O)[C@@H](O)C(O)O[C@@H]3CO)O[C@@H]2CO)[C@H](O)[C@@H](O)[C@@H]1N[C@H]1C=C(CO)[C@@H](O)[C@H](O)[C@H]1O (stereo partly shown) [acarbose]
IC50: 49.78 ± 1.45 µg/mL (≈ 77.1 µM)
